{
  "source": "paper PMC3461336",
  "about": "(Biomacromolecules, 2012)",
  "origin": "cited, not measured here",
  "settings": "without dpA3",
  "data": [
    {"smiles": "CC(=O)O[C@H]1C(=O)[C@@]2(C)[C@H]([C@H](OC(=O)c3ccccc3)[C@]3(O)C[C@H](OC(=O)[C@H](O)[C@@H](NC(=O)c4ccccc4)c4ccccc4)C(C)=C1C3(C)C)[C@]1(OC(C)=O)CO[C@@H]1C[C@@H]2O", "note": "[PAX, Paclitaxel]", "values": [
      {"measurement": "PAX solubility in aqueous solvents", "value": "< 0.1", "unit": "µg/mL"}
    ]}
  ]
}
